Measurements taken from ChEMBL document CHEMBL3393036, “Tetra-substituted pyridinylimidazoles as dual inhibitors of p38α mitogen-activated protein kinase and c-Jun N-terminal kinase 3 for potential treatment of neurodegenerative diseases” (J Med Chem, 2015).

What was measured:
[1] = target: Protein kinase C alpha type (Homo sapiens) (UniProt P17252); test: Inhibition of PRKCA (unknown origin) at 5.5 uM by Caliper Mobility Shift Assay
[2] = target: MAP kinase-interacting serine/threonine-protein kinase 1 (Homo sapiens) (UniProt Q9BUB5); test: Inhibition of MKNK1 (unknown origin) at 5.5 uM by Caliper Mobility Shift Assay
[3] = target: T1, Ephrin type-B receptor 4 (Homo sapiens) (UniProt P54760); test: Inhibition of EPHB4 (unknown origin) at 5.5 uM by Caliper Mobility Shift Assay
T1 sequence (whole entry): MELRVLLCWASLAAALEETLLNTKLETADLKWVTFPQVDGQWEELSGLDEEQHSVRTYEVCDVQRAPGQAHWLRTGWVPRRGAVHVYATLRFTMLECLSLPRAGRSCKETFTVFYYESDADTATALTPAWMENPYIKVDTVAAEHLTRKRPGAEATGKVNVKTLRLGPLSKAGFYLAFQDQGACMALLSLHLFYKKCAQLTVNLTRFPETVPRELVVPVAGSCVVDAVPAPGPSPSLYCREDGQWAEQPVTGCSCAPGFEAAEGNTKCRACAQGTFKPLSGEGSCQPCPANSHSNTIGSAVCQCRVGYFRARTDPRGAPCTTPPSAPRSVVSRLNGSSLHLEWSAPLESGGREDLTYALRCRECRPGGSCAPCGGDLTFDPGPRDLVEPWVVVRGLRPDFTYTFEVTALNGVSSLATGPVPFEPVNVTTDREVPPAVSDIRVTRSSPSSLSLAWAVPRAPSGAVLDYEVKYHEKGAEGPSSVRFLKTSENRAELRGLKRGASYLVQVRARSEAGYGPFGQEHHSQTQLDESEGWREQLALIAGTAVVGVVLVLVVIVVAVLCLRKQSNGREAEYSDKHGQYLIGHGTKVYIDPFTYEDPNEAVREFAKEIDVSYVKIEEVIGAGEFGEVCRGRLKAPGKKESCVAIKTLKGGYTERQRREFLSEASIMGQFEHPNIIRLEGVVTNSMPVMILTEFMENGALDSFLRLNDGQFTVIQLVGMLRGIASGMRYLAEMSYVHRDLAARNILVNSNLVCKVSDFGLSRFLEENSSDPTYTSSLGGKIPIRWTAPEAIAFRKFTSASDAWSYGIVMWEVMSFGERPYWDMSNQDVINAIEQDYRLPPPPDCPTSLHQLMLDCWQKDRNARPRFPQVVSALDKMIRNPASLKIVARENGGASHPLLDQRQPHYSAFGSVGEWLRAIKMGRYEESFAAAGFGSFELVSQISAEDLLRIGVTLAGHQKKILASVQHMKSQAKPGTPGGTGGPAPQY

[4] = target: Interleukin-1 receptor-associated kinase 1 (Homo sapiens) (UniProt P51617); test: Inhibition of IRAK1 (unknown origin) at 5.5 uM by Caliper Mobility Shift Assay
[5] = target: Fibroblast growth factor receptor 3 (Homo sapiens) (UniProt P22607); test: Inhibition of FGFR3 (unknown origin) at 5.5 uM by Caliper Mobility Shift Assay
[6] = target: Fibroblast growth factor receptor 1 (Homo sapiens) (UniProt P11362); test: Inhibition of FGFR1 (unknown origin) at 5.5 uM by Caliper Mobility Shift Assay
[7] = target: Fibroblast growth factor receptor 2 (Homo sapiens) (UniProt P21802); test: Inhibition of FGFR2 (unknown origin) at 5.5 uM by Caliper Mobility Shift Assay
[8] = target: Tyrosine-protein kinase JAK2 (Homo sapiens) (UniProt O60674); test: Inhibition of JAK2 (unknown origin) at 5.5 uM by Caliper Mobility Shift Assay
[9] = target: TRAF2 and NCK-interacting protein kinase (Homo sapiens) (UniProt Q9UKE5); test: Inhibition of TNIK (unknown origin) at 5.5 uM by Caliper Mobility Shift Assay
[10] = target: Tyrosine-protein kinase BTK (Homo sapiens) (UniProt Q06187); test: Inhibition of BTK (unknown origin) at 5.5 uM by Caliper Mobility Shift Assay
[11] = target: T2, Mitogen-activated protein kinase 10 (Homo sapiens, UniProt P53779); test: Inhibition of JNK3 (unknown origin) assessed as phosphorylation of ATF-2 by ELISA
[12] = target: T2, Mitogen-activated protein kinase 10; test: Inhibition of MAPK10 (JNK3) (unknown origin) at 5.5 uM by Caliper Mobility Shift Assay
[13] = target: Proto-oncogene tyrosine-protein kinase receptor Ret (Homo sapiens) (UniProt P07949); test: Inhibition of RET (unknown origin) at 5.5 uM by Caliper Mobility Shift Assay
[14] = target: Mitogen-activated protein kinase 1 (Homo sapiens) (UniProt P28482); test: Inhibition of MAPK1 (ERK2) (unknown origin) at 5.5 uM by Caliper Mobility Shift Assay
[15] = target: Tyrosine-protein kinase Lyn (Homo sapiens) (UniProt P07948); test: Inhibition of LYN (unknown origin) at 5.5 uM by Caliper Mobility Shift Assay
[16] = target: Protein kinase C theta type (Homo sapiens) (UniProt Q04759); test: Inhibition of PRKCQ (unknown origin) at 5.5 uM by Caliper Mobility Shift Assay
[17] = target: Ribosomal protein S6 kinase beta-2 (Homo sapiens) (UniProt Q9UBS0); test: Inhibition of S6K (unknown origin) at 5.5 uM by Caliper Mobility Shift Assay
[18] = target: Receptor-type tyrosine-protein kinase FLT3 (Homo sapiens) (UniProt P36888); test: Inhibition of FLT3 (unknown origin) at 5.5 uM by Caliper Mobility Shift Assay
[19] = target: T3, Interleukin-1 receptor-associated kinase 4 (Homo sapiens) (UniProt Q9NWZ3); test: Inhibition of IRAK4 (unknown origin) at 5.5 uM by Caliper Mobility Shift Assay
T3 sequence (whole entry): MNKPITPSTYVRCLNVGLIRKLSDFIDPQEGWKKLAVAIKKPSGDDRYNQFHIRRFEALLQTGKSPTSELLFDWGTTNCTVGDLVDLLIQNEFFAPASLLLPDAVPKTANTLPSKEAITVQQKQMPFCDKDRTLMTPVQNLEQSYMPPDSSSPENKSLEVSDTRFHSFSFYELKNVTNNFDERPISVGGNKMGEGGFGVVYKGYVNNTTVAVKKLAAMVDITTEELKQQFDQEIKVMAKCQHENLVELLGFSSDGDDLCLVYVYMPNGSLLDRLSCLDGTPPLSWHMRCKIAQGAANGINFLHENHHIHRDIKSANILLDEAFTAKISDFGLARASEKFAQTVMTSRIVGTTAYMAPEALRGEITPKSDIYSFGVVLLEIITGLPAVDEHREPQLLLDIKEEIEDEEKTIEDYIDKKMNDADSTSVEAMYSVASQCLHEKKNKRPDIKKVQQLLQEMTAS

[20] = target: Receptor tyrosine-protein kinase erbB-4 (Homo sapiens) (UniProt Q15303); test: Inhibition of ERBB4 (HER4) (unknown origin) at 5.5 uM by Caliper Mobility Shift Assay
Homo sapiens = species: Homo sapiens; test: Selectivity ratio of IC50 for JNK3 (unknown origin) to IC50 for p38alpha (unknown origin)

Chain of Tyrosine-protein kinase Lyn (Homo sapiens) (P07948 2-512 limits assumed): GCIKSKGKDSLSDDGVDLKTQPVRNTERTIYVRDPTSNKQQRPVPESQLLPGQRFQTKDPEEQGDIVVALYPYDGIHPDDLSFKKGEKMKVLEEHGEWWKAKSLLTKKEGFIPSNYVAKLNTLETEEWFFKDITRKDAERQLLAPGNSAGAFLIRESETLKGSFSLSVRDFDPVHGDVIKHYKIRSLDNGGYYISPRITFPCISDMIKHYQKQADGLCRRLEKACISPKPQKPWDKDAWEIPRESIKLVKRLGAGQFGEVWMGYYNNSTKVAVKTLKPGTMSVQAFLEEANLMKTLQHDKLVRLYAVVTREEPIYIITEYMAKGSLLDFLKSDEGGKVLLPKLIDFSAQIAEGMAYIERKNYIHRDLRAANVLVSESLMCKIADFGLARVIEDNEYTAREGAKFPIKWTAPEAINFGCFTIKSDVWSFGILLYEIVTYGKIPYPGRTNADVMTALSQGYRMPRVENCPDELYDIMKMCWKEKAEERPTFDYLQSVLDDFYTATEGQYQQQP
Chain of Interleukin-1 receptor-associated kinase 1 (Homo sapiens) (P51617 whole entry, looked up): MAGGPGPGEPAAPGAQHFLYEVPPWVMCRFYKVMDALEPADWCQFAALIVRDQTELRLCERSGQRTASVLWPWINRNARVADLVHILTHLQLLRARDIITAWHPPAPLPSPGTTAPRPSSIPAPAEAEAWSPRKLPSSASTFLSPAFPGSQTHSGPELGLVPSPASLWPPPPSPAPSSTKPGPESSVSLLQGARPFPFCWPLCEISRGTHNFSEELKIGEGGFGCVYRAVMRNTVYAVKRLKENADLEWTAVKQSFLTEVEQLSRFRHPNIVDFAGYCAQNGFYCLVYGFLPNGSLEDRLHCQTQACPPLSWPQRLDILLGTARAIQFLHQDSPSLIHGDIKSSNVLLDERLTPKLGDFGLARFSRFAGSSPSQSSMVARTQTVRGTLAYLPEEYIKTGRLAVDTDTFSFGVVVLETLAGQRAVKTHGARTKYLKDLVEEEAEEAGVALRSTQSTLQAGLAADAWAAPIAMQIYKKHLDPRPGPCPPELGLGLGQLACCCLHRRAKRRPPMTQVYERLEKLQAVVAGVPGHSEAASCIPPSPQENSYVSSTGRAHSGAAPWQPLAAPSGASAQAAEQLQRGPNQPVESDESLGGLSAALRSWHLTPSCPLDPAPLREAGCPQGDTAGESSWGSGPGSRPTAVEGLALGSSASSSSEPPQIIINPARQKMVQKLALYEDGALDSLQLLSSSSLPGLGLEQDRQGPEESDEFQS
Chain of Fibroblast growth factor receptor 3 (Homo sapiens) (P22607 23-806 limits assumed): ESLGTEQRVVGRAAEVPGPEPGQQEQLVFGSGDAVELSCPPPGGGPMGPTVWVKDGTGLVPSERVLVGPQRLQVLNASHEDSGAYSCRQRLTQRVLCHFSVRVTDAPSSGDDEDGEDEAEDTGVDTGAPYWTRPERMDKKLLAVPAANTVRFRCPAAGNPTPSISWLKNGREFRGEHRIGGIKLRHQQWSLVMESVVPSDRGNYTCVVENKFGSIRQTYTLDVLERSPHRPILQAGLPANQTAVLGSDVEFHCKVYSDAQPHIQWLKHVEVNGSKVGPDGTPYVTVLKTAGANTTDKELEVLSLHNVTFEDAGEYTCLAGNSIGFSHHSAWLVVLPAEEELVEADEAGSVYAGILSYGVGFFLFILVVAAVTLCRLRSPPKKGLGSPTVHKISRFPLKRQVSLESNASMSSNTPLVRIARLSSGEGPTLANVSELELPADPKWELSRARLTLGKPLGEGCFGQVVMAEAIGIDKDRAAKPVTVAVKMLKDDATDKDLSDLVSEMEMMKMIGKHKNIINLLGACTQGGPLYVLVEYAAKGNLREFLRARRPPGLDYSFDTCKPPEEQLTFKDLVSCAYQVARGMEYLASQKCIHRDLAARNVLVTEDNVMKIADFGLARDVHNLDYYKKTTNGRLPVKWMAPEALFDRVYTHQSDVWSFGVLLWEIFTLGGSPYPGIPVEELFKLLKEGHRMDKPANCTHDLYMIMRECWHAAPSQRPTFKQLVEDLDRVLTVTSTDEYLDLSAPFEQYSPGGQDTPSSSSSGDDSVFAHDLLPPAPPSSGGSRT
Chain of Tyrosine-protein kinase BTK (Homo sapiens) (Q06187 whole entry): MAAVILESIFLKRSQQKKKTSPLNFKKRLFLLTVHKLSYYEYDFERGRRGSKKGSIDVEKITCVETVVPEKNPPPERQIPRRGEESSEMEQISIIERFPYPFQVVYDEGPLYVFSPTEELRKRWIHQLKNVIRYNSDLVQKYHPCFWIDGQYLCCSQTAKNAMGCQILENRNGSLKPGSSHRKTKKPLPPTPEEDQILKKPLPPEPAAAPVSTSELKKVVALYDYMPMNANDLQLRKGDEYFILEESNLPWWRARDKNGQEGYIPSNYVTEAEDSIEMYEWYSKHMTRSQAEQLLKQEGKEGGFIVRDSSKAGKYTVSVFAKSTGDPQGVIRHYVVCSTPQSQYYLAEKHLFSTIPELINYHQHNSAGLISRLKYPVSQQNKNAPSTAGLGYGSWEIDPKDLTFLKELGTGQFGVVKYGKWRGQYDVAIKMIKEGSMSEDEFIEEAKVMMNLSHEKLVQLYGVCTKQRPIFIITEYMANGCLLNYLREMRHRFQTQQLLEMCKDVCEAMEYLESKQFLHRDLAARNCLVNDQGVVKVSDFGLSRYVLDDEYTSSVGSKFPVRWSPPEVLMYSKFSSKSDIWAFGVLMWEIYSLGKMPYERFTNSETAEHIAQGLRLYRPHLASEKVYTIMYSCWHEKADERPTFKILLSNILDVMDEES
Chain of Fibroblast growth factor receptor 1 (Homo sapiens) (P11362 22-822 limits assumed): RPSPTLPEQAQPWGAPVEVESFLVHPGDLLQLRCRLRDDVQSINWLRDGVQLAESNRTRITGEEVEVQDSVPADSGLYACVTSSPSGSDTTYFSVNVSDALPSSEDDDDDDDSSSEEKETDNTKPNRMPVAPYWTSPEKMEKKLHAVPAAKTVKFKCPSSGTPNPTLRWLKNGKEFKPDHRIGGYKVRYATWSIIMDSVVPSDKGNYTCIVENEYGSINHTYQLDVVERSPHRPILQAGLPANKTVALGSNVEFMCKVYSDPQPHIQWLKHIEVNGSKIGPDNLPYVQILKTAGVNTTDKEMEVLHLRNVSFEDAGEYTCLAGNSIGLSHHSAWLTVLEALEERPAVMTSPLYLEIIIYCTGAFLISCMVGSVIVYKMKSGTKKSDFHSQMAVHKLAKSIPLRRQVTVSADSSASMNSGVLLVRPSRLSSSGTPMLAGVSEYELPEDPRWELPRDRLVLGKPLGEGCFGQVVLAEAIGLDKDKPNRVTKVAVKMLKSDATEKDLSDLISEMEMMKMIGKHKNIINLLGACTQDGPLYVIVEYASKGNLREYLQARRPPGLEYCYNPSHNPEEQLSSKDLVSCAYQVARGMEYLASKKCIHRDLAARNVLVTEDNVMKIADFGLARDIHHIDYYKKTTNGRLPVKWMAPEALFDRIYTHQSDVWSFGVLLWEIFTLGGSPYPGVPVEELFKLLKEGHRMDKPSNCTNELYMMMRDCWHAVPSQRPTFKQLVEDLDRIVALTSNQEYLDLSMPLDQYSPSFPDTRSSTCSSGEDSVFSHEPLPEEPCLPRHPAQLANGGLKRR
T2 sequence (P53779 whole entry): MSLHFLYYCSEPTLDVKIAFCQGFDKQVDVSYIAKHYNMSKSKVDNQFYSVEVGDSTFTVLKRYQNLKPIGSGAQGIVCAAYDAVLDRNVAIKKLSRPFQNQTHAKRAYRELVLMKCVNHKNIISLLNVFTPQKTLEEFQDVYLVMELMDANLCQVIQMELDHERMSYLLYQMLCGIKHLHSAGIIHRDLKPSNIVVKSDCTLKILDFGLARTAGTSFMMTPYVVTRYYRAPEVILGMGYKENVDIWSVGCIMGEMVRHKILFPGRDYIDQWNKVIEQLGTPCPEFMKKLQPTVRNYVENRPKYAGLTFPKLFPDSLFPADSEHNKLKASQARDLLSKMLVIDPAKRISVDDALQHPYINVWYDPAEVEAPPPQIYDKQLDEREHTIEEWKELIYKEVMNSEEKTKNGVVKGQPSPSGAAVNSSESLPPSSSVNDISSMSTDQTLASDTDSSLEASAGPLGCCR
Chain of Mitogen-activated protein kinase 1 (Homo sapiens) (P28482 whole entry): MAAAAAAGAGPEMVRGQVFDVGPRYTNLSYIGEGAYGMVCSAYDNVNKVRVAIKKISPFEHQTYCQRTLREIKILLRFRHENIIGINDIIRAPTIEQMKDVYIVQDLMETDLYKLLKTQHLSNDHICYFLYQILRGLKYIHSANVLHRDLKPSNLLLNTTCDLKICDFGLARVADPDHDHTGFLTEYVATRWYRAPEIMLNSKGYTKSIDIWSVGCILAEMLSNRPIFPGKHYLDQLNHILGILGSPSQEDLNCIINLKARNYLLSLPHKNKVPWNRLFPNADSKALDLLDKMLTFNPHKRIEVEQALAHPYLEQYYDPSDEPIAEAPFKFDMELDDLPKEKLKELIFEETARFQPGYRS

`CC(=O)Nc1cc(-c2c(-c3ccc(F)cc3)nc(S/C=C\C(=O)O)n2C2CCCCC2)ccn1` was tested, and the inhibition [1] was < 50%, the inhibition [2] was < 50% and the inhibition [3] was < 50%. The inhibition [4] was < 50%, the inhibition [5] was < 50% and the inhibition [6] was < 50%. The inhibition [7] was < 50%, the inhibition [8] was < 50% and the inhibition [9] was < 50%. For the same compound, the inhibition [10] was < 50%, the IC50 [11] was 133 nM and the inhibition [12] was < 50%. For the same compound, the inhibition [13] was < 50%, the inhibition [14] was < 50% and the inhibition [15] was < 50%. The inhibition [16] was < 50%, the inhibition [17] was < 50% and the inhibition [18] was < 50%. For the same compound, the inhibition [19] was < 50%, the inhibition [20] was < 50% and the Ratio IC50 (Homo sapiens) was 0.8.

`CC(=O)Nc1cc(-c2c(-c3ccc(F)cc3)nc(Sc3cccc(I)n3)n2C2CCCCC2)ccn1` was tested, and the inhibition [1] was < 50%, the inhibition [2] was < 50% and the inhibition [3] was < 50%. The inhibition [4] was < 50%, the inhibition [5] was < 50% and the inhibition [6] was < 50%. For the same compound, the inhibition [7] was < 50%, the inhibition [8] was < 50% and the inhibition [9] was < 50%. For the same compound, the inhibition [10] was < 50%, the IC50 [11] was 1530 nM and the inhibition [12] was < 50%. For the same compound, the inhibition [13] was < 50%, the inhibition [14] was < 50% and the inhibition [15] was < 50%. For the same compound, the inhibition [16] was < 50%, the inhibition [17] was < 50% and the inhibition [18] was < 50%. The inhibition [19] was < 50%, the inhibition [20] was < 50% and the Ratio IC50 (Homo sapiens) was 4.3.

`CC(=O)Nc1cc(-c2c(-c3ccc(F)cc3)nc(S/C=C\C(=O)O)n2CC2CCCO2)ccn1` (racemic) was tested, and the inhibition [1] was < 50%, the inhibition [2] was < 50% and the inhibition [3] was < 50%. For the same compound, the inhibition [4] was < 50%, the inhibition [5] was < 50% and the inhibition [6] was < 50%. For the same compound, the inhibition [7] was < 50%, the inhibition [8] was < 50% and the inhibition [9] was < 50%. For the same compound, the inhibition [10] was < 50%, the IC50 [11] was 35 nM and the inhibition [12] was < 50%. The inhibition [13] was < 50%, the inhibition [14] was < 50% and the inhibition [15] was < 50%. For the same compound, the inhibition [16] was < 50%, the inhibition [17] was < 50% and the inhibition [18] was < 50%. For the same compound, the inhibition [19] was < 50%, the inhibition [20] was < 50% and the Ratio IC50 (Homo sapiens) was 0.2.

For `CC(=O)Nc1cc(-c2c(-c3ccc(F)cc3)nc(S/C=C\C(=O)O)n2C2CC2)ccn1`, the inhibition [1] was < 50%, the inhibition [2] was < 50% and the inhibition [3] was < 50%. The inhibition [4] was < 50%, the inhibition [5] was < 50% and the inhibition [6] was < 50%. For the same compound, the inhibition [7] was < 50%, the inhibition [8] was < 50% and the inhibition [9] was < 50%. For the same compound, the inhibition [10] was < 50%, the IC50 [11] was 82 nM and the inhibition [12] was < 50%. For the same compound, the inhibition [13] was < 50%, the inhibition [14] was < 50% and the inhibition [15] was < 50%. For the same compound, the inhibition [16] was < 50%, the inhibition [17] was < 50% and the inhibition [18] was < 50%. The inhibition [19] was < 50%, the inhibition [20] was < 50% and the Ratio IC50 (Homo sapiens) was 0.7.

In the case of `COC(Cn1c(SC2CCC(C(=O)O)CC2O)nc(-c2ccc(F)cc2)c1-c1ccnc(NC(C)=O)c1)OC` (stereo not given), the inhibition [1] is reported as < 50%, the inhibition [2] is reported as < 50% and the inhibition [3] is reported as < 50%. For the same compound, the inhibition [4] was < 50%, the inhibition [5] was < 50% and the inhibition [6] was < 50%. The inhibition [7] was < 50%, the inhibition [8] was < 50% and the inhibition [9] was < 50%. The inhibition [10] was < 50%, the IC50 [11] was 2010 nM and the inhibition [12] was < 50%. For the same compound, the inhibition [13] was < 50%, the inhibition [14] was < 50% and the inhibition [15] was < 50%. For the same compound, the inhibition [16] was < 50%, the inhibition [17] was < 50% and the inhibition [18] was < 50%. The inhibition [19] was < 50%, the inhibition [20] was < 50% and the Ratio IC50 (Homo sapiens) was 14.9.
